{"source": "paper PMC6797481", "about": "“Identification of an allosteric binding site on the human glycine transporter, GlyT2, for bioactive lipid analgesics” (eLife, 2019)", "key": {"GlyT1 L425I mutant": {"target": "T1, GlyT1 L425I mutant (Homo sapiens, UniProt P48067, L439I)", "T1 construct": "expressed in transfected cells; host or cells: Xenopus laevis oocytes (cRNA injection)", "T1 sequence (P48067 1-652 isoform P48067-3 L385I)": "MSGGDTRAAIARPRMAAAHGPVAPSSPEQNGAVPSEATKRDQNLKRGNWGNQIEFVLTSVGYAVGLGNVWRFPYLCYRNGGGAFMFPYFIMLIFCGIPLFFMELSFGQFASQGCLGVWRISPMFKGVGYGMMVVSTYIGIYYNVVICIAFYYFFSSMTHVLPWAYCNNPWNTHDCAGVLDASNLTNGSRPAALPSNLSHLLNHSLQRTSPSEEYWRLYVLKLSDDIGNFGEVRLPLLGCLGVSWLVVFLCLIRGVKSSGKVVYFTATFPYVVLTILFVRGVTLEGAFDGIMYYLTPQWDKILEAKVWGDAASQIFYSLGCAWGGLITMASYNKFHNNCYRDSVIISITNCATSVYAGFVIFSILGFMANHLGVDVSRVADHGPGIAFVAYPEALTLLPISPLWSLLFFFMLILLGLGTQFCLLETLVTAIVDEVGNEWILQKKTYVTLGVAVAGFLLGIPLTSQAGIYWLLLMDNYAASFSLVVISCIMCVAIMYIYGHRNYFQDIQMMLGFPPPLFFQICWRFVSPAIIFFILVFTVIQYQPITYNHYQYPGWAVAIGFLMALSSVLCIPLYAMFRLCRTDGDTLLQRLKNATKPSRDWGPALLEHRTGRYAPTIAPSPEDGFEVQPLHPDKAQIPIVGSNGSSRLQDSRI", "assay": "Glycine transport currents, two electrode voltage clamp, oocytes expressing GlyT1 L425I", "format": "cell-based", "conditions": "for % Max. inhibition: mean ± SEM; for sensitivity of GlyT1 L425I to inhibition: similar to the WT GlyT1 response", "experimental": "(§1) Glycine was first applied to establish maximal transport current.\n(§2) Compounds were tested for inhibition of glycine transport on Xenopus laevis oocytes expressing mutant GlyT1 and GlyT2 transporters. n values are in brackets, with measurements taken from at least 2 batches of oocytes."}, "GlyT2 Y550L mutant": {"target": "T2, GlyT2 Y550L mutant (Homo sapiens, UniProt Q9Y345, Y550L)", "T2 construct": "expressed in transfected cells; host or cells: Xenopus laevis oocytes (cRNA injection)", "T2 sequence (Q9Y345 1-797 Y550L)": "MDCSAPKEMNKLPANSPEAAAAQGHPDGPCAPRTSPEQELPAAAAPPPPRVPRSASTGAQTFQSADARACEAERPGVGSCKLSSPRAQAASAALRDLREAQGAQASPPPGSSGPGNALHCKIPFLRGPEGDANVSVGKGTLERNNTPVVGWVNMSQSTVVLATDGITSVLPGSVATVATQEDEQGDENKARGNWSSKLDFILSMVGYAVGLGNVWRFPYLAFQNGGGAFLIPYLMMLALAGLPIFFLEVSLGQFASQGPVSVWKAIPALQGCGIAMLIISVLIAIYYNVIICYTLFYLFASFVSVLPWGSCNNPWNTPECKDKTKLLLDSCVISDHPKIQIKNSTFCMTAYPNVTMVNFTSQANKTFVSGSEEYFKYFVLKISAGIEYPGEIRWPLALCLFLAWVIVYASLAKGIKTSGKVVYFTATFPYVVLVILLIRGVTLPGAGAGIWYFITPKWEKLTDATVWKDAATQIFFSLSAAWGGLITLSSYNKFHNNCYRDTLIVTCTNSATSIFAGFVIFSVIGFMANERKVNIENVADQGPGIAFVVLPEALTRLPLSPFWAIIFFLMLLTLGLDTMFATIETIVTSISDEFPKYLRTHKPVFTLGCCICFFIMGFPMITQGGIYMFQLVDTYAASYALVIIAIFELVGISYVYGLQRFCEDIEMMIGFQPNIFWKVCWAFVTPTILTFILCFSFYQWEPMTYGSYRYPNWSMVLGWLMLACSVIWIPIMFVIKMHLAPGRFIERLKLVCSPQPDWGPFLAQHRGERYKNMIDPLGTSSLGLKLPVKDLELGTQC", "assay": "Glycine transport currents, two electrode voltage clamp, oocytes expressing GlyT2 Y550L", "format": "cell-based", "conditions": "for % Max. inhibition: mean ± SEM", "experimental": "as §1, §2"}, "GlyT2 WT": {"target": "T3, GlyT2 WT (Homo sapiens, UniProt Q9Y345)", "T3 sequence (Q9Y345 1-797)": "T2 sequence (Q9Y345 1-797 Y550L) with L550Y", "parameters": "expressed in transfected cells; host or cells: Xenopus laevis oocytes (cRNA injection)", "conditions": "cited from earlier work; for IC50 / GlyT2 % max. inhibition: WT GlyT2, previously published; for IC50: mean (95% CI); for GlyT2 % max. inhibition: mean ± SEM; for mechanism of inhibition: versus substrate glycine, ref Mostyn et al., 2019, Wiles et al., 2006"}, "[1]": {"conditions": "GlyT1 L425I, greater than maximum concentration applied (footnote a)"}, "[2]": {"conditions": "GlyT2 Y550L, greater than maximum concentration applied (footnote a)"}}, "note": "Positions count from the first letter of the chain named.", "data": [{"compound": "NCC(=O)O", "note": "[Glycine]", "values": [{"measurement": "EC50", "setting": "GlyT1 L425I mutant; glycine transport, GlyT1 mutant printed I425L (EL4)", "result": "45100 ± 9600", "unit": "nM"}, {"measurement": "EC50", "setting": "GlyT2 Y550L mutant; glycine transport, GlyT2 Y550L (EL4)", "result": "62200 ± 11400", "unit": "nM"}]}, {"compound": "CCCCC/C=C\\C/C=C\\C/C=C\\C/C=C\\CCCC(=O)NCC(=O)O", "note": "[N-arachidonyl Glycine, reference compound]", "values": [{"measurement": "IC50", "setting": "GlyT1 L425I mutant; [1]", "result": "> 10000", "unit": "nM"}, {"measurement": "% Max. inhibition", "setting": "GlyT1 L425I mutant; GlyT1 L425I", "result": "31.6 ± 6.9 (p=0.0361) %"}, {"measurement": "IC50", "setting": "GlyT2 WT", "result": 9100, "unit": "nM"}, {"measurement": "GlyT2 % max. inhibition", "setting": "GlyT2 WT", "result": "79.6 ± 2.1", "unit": "%"}, {"measurement": "mechanism of inhibition", "setting": "GlyT2 WT", "result": "not competitive"}]}, {"compound": "CCCCCCCC/C=C\\CCCCCCCC(=O)NCC(=O)O", "note": "[N-oleoyl Glycine, reference compound]", "values": [{"measurement": "% Max. inhibition (% inhibition at the highest concentration of inhibitor used)", "setting": "GlyT1 L425I mutant; GlyT1 L425I, footnote b", "result": "28.5 ± 5.3^b (p=0.0564) %"}, {"measurement": "IC50", "setting": "GlyT1 L425I mutant; [1]", "result": "> 10000", "unit": "nM"}, {"measurement": "sensitivity of GlyT1 L425I to inhibition", "setting": "GlyT1 L425I mutant", "result": "insensitive"}, {"measurement": "IC50", "setting": "GlyT2 WT", "result": 500, "unit": "nM"}, {"measurement": "GlyT2 % max. inhibition", "setting": "GlyT2 WT", "result": "66.8 ± 2.8", "unit": "%"}, {"measurement": "IC50", "setting": "GlyT2 Y550L mutant; GlyT2 Y550L, mean (95% CI)", "result": 829, "unit": "nM"}, {"measurement": "% Max. inhibition", "setting": "GlyT2 Y550L mutant; GlyT2 Y550L", "result": "34.8 ± 9.1 (p=0.0011) %"}]}, {"compound": "CCCCCCCC/C=C\\CCCCCCCC(=O)O[C@H](CC(=O)[O-])C[N+](C)(C)C", "note": "[oleoyl L-Carnitine, reference compound]", "values": [{"measurement": "% Max. inhibition", "setting": "GlyT1 L425I mutant; GlyT1 L425I", "result": 74.6, "unit": "%"}, {"measurement": "IC50", "setting": "GlyT2 WT", "result": 340, "unit": "nM"}, {"measurement": "GlyT2 % max. inhibition", "setting": "GlyT2 WT", "result": "71.5 ± 5.7", "unit": "%"}, {"measurement": "IC50", "setting": "GlyT2 Y550L mutant; [2]", "result": "> 3000", "unit": "nM"}, {"measurement": "% Max. inhibition", "setting": "GlyT2 Y550L mutant; GlyT2 Y550L", "result": "17.3 ± 1.4 (p=0.0001) %"}]}, {"compound": "CCCCCCCC/C=C\\CCCCCCCC(=O)N[C@@H](CC(=O)O)C(=O)O", "note": "[oleoyl l-Aspartate]", "values": [{"measurement": "IC50", "setting": "GlyT2 WT", "result": 865, "unit": "nM"}, {"measurement": "GlyT2 % max. inhibition", "setting": "GlyT2 WT", "result": "76.7 ± 5.3", "unit": "%"}, {"measurement": "% Max. inhibition (% inhibition at the highest concentration of inhibitor used)", "setting": "GlyT2 Y550L mutant; GlyT2 Y550L, footnote b", "result": "7.0 ± 0.8^b (p=0.0001) %"}, {"measurement": "IC50", "setting": "GlyT2 Y550L mutant; [2]", "result": "> 3000", "unit": "nM"}]}, {"compound": "CCCCCCCC/C=C\\CCCCCCCC(=O)N[C@@H](CCCCN)C(=O)O", "note": "[oleoyl l-Lysine]", "values": [{"measurement": "fold lower apparent affinity at GlyT1 L425I", "setting": "GlyT1 L425I mutant; GlyT1 L425I compared with WT GlyT2", "result": 9, "unit": "fold"}, {"measurement": "IC50", "setting": "GlyT1 L425I mutant; GlyT1 L425I, mean (95% CI)", "result": 236, "unit": "nM"}, {"measurement": "% Max. inhibition", "setting": "GlyT1 L425I mutant; GlyT1 L425I", "result": 95.6, "unit": "%"}, {"measurement": "GlyT2 % max. inhibition", "setting": "GlyT2 WT", "result": "86.8 ± 2.4", "unit": "%"}, {"measurement": "mechanism of inhibition", "setting": "GlyT2 WT", "result": "not competitive"}, {"measurement": "IC50", "setting": "GlyT2 Y550L mutant; GlyT2 Y550L, mean (95% CI)", "result": 210, "unit": "nM"}, {"measurement": "% Max. inhibition", "setting": "GlyT2 Y550L mutant; GlyT2 Y550L", "result": "48.2 ± 4.1 (p=0.0001) %"}]}, {"compound": "CCCCCCCC/C=C\\CCCCCCCC(=O)N[C@@H](Cc1c[nH]c2ccccc12)C(=O)O", "note": "[oleoyl l-Tryptophan]", "values": [{"measurement": "IC50", "setting": "GlyT1 L425I mutant; [1]", "result": "> 3000", "unit": "nM"}, {"measurement": "% Max. inhibition", "setting": "GlyT1 L425I mutant; GlyT1 L425I", "result": "35.7 ± 13.2 (p=0.2787) %"}, {"measurement": "sensitivity of GlyT1 L425I to inhibition", "setting": "GlyT1 L425I mutant", "result": "insensitive"}, {"measurement": "GlyT2 % max. inhibition", "setting": "GlyT2 WT", "result": "86.2 ± 3.8", "unit": "%"}, {"measurement": "IC50", "setting": "GlyT2 Y550L mutant; [2]", "result": "> 3000", "unit": "nM"}, {"measurement": "% Max. inhibition", "setting": "GlyT2 Y550L mutant; GlyT2 Y550L", "result": "16.5 ± 1.7 (p=0.0001) %"}]}, {"compound": "CCCCCCCC/C=C\\CCCCCCCC(=O)N[C@H](C(=O)O)C(C)C", "note": "[oleoyl l-Valine]", "values": [{"measurement": "IC50", "setting": "GlyT2 WT", "result": 1170, "unit": "nM"}, {"measurement": "GlyT2 % max. inhibition", "setting": "GlyT2 WT", "result": "90.9 ± 5.9", "unit": "%"}, {"measurement": "IC50", "setting": "GlyT2 Y550L mutant; GlyT2 Y550L, mean (95% CI)", "result": 2930, "unit": "nM"}, {"measurement": "% Max. inhibition", "setting": "GlyT2 Y550L mutant; GlyT2 Y550L", "result": "57.0 ± 5.1 (p=0.0028) %"}]}, {"compound": "oleoyl d-Lysine", "values": [{"measurement": "IC50", "setting": "GlyT2 WT", "result": 48.3, "unit": "nM"}, {"measurement": "GlyT2 % max. inhibition", "setting": "GlyT2 WT", "result": "91.0 ± 1.9", "unit": "%"}, {"measurement": "IC50", "setting": "GlyT2 Y550L mutant; [2]", "result": "> 3000", "unit": "nM"}, {"measurement": "% Max. inhibition", "setting": "GlyT2 Y550L mutant; GlyT2 Y550L", "result": "38.4 ± 10.0 (p=0.0010) %"}]}]}
